One block for each compound: values may come before it.
Assays:
Type in all cases: cell-based
[1] = molecular target: T1, orexin-1 (Homo sapiens, UniProt O43613); assay: Antagonism against orexin-1 in the aforementioned (above identified) intracellular calcium assays
T1 construct: expressed in transfected cells
T1 sequence (O43613 1-425): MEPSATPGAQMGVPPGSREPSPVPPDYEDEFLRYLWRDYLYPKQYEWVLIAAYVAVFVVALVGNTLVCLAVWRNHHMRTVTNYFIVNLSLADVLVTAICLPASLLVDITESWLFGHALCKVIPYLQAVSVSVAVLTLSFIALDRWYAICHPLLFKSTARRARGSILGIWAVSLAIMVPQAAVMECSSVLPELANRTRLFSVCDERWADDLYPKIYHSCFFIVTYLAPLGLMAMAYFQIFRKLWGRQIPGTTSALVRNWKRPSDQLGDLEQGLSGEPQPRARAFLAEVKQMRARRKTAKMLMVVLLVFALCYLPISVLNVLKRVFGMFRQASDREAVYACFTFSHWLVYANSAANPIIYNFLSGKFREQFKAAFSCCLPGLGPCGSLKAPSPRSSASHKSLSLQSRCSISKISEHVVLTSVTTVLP
From the text: Antagonism against orexin receptors has been measured for each example compound using at least one of the following procedures. […] These values may fluctuate depending on the daily cellular assay performance. Fluctuations of this kind are known to those skilled in the art. […] Data highlighted with an asterix (*) is derived from a single experiment, otherwise all data reported is an average of at least two independant replicate experiments. […]

[2] = molecular target: T2, hOX1R (Homo sapiens, UniProt O43613); assay: Intracellular calcium measurements using division-arrested cells, OX1; settings: agonist orexin A at 2×EC50, * = single experiment, otherwise average of at least two, read-out: pIC50 OX1 (converted)
T2 sequence (O43613 1-425): T1 sequence (O43613 1-425)
Procedure, shortened: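 Division-arrested cells expressing human OX1 or OX2 were seeded for 16 h, then loaded with Calcium 5 dye plus probenecid for 1 h at 37 °C. Compounds in HEPES-buffered HBSS with 0.1% BSA, pH 7.4, top final concentration 10 μM, were added 10 min before the FlexStation calcium read.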

[3] = molecular target: T2, hOX1R; assay: Whole cell FLIPR functional assay, comparison with reference compounds, hOX1R; set-up: expressed in transfected cells; settings: for Selectivity: orexin-1 receptor over orexin-2 receptor; for IC50: read-out: hOX1R pIC50 (converted)
From the text: (§1) As indicated herein, by whole cell FLIPR functional assay data and by comparison with reference compounds not claimed within the present invention, the compounds of the present invention provide increased selectivity for the orexin-1 receptor over the orexin-2 receptor. The increased selectivity for the orexin-1 receptor over the orexin-2 receptor in the whole cell FLIPR functional assay provides enhanced predictive value for determining in vivo efficacy. Increasing the functional selectivity for the orexin-1 receptor reduces the potential for dual receptor antagonism in vivo. Such greater functional selectivity may provide benefits over other orexin receptor antagonists that are known in the art.

[4] = molecular target: T3, hOX2R (Homo sapiens, UniProt O43614); assay: Whole cell FLIPR functional assay, comparison with reference compounds, hOX2R; set-up: expressed in transfected cells; settings: read-out: hOX2R pIC50 (converted)
T3 sequence (O43614 1-444): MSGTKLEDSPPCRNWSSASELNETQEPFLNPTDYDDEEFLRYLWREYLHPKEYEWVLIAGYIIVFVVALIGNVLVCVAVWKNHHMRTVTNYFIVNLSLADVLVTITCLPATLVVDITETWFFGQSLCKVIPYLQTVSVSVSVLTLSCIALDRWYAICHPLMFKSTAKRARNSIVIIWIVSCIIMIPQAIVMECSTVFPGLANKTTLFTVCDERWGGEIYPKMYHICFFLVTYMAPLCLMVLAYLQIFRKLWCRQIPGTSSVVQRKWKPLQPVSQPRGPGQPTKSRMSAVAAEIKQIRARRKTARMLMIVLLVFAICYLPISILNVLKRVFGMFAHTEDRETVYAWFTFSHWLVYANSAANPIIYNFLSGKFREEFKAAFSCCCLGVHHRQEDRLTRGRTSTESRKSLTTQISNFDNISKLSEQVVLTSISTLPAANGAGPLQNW
From the text: as §1

[5] = molecular target: T2, hOX1R; assay: Intracellular calcium measurements using stable-replicating cells, Method A, OX1; settings: orexin-A at 4×EC50, * = single experiment, read-out: pIC50 OX1 (converted)
Protocol: (§2) Intracellular Calcium Measurements Using Stable-replicating Cells:
(§3) Method A (Table 2): Test compounds are prepared as 10 mM stock solutions in DMSO, warmed briefly for 20 seconds at 37° C. and serially diluted in half log concentrations with DMSO followed by dilution with assay buffer (HBSS (Sigma-Aldrich, H8264) containing 10 mM HEPES (Invitrogen, 15630080) and pH adjusted to 7.4) to a top final assay concentration of 10 μM.
(§4) Human OX1 (CT-A674) and human OX2 (CT-A675) receptor-expressing stable-replicating cells are grown in a culture medium, Ham F12 (Invitrogen, 31765-035) containing 10% fetal bovine serum (Invitrogen, 16000044), 1% non-essential amino acids (Invitrogen, 11140-050), 100 U/mL Penicillin/Streptomycin (Invitrogen, 15140-122) and G418 (Invitrogen, 11811023) at a concentration of 400 μg/mL. The cells are seeded at a density of 7,000 cells/well into black, clear bottom 384-well plates (Corning, 3683) and incubated at 37° C. in air supplemented with 5% CO2 for 16 hrs.
(§5) Loading dye (25 μL/well), prepared from a FLIPR Calcium 6 Assay kit (Molecular Devices, R8190-Explorer) according to the manufacturer's instructions, and the serially diluted test compounds (10 μL/well) are added to the plate. The plate is then incubated for 30 mins at 37° C. in 5% CO2, then for 30 mins at ambient temperature and placed into a FlexStation III reader.

[6] = molecular target: T3, hOX2R; assay: Intracellular calcium measurements using stable-replicating cells, Method A, OX2; settings: orexin-A at 4×EC50, * = single experiment, read-out: pIC50 OX2 (converted)
Protocol: as §2, §3, §4, §5

[7] = molecular target: T2, hOX1R; assay: Intracellular calcium measurements using stable-replicating cells, Method B (CHO cells, FLIPR Tetra), OX1; settings: orexin A at EC75, read-out: pIC50 OX1 (converted)
[8] = molecular target: T3, hOX2R; assay: Intracellular calcium measurements using stable-replicating cells, Method B (CHO cells, FLIPR Tetra), OX2; settings: orexin A at EC75, read-out: pIC50 OX2 (converted)

IC50 [1]: > 10000 nM
Structure (SMILES): CC[C@@H](COc1nc2ccccc2n1C)NC(=O)c1cc(C)ccc1-n1nccn1 [(S)-5-methyl-N-(1-((1-methyl-1H-benzo[d]imidazol-2-yl)oxy)butan-2-yl)-2-(2H-1,2,3-triazol-2-yl)benzamide]

IC50 [1]: > 10000 nM
Structure (SMILES): CC[C@@H](COc1nc2ccccc2n1C)N(C)C(=O)c1cc(C)ccc1-n1nccn1 [(S)—N,5-dimethyl-N-(1-((1-methyl-1H-benzo[d]imidazol-2-yl)oxy)butan-2-yl)-2-(2H-1,2,3-triazol-2-yl)benzamide]

IC50 [1]: > 10000 nM
Structure (SMILES): CC[C@@H](CNc1ccc(Cl)cn1)NC(=O)c1cc(C)ccc1N1CCOCC1 [(S)—N-(1-((5-chloropyridin-2-yl)amino)butan-2-yl)-5-methyl-2-morpholinobenzamide]

IC50 [1]: > 10000 nM
Structure (SMILES): Cc1ccc(-n2nccn2)c(C(=O)N(C)C(CNc2ccc(Cl)cn2)C2COC2)c1 (centres unmarked) [N-(2-((5-chloropyridin-2-yl)amino)-1-(oxetan-3-yl)ethyl)-N,5-dimethyl-2-(2H-1,2,3-triazol-2-yl)benzamide]

IC50 [1]: > 10000 nM
Structure (SMILES): CC[C@@H](CNc1ccc(Cl)cn1)N(C)C(=O)c1cc(C)ccc1N1CCN(C)CC1 [(S)—N-(1-((5-chloropyridin-2-yl)amino)butan-2-yl)-N,5-dimethyl-2-(4-methylpiperazin-1-yl)benzamide]

IC50 [1]: > 10000 nM
Structure (SMILES): CCOC(=O)c1ccc(NC[C@H](CC)N(C)C(=O)c2cc(Cl)ccc2-n2nccn2)nc1 [(S)-ethyl 6-((2-(5-chloro-N-methyl-2-(2H-1,2,3-triazol-2-yl)benzamido)butyl)amino) nicotinate]

IC50 [1]: > 10000 nM
Structure (SMILES): CC[C@@H](CNc1ccc(Cl)cn1)NC(=O)c1cc(C)ccc1N1CCN(C)CC1 [(S)—N-(1-((5-chloropyridin-2-yl)amino)butan-2-yl)-5-methyl-2-(4-methylpiperazin-1-yl)benzamide]

Structure (SMILES): CC(C)[C@@H](CNc1ccc(Cl)cn1)N(C)C(=O)c1ccccc1-c1ccccc1 [Example 10, (S)—N-(1-((5-chloropyridin-2-yl)amino)-3-methylbutan-2-yl)-N-methyl-[1,1′-biphenyl]-2-carboxamide]
IC50 [2]: 79.4 nM | Selectivity [3]: Selectivity 80x | IC50 [3]: 79.4 nM | IC50 [4]: 6310 nM

Structure (SMILES): CN(CCNc1ccc(Cl)cn1)C(=O)c1ccccc1-c1ccccc1
Selectivity [3]: Selectivity 1.1x | IC50 [3]: 63.1 nM | IC50 [4]: 79.4 nM

IC50 [1]: > 10000 nM
Structure (SMILES): CC[C@@H](CNc1ncc(C(F)(F)F)cn1)N(C)C(=O)c1nc(C(C)(C)O)ccc1-n1nccn1 [(S)-6-(2-hydroxypropan-2-yl)-N-methyl-3-(2H-1,2,3-triazol-2-yl)-N-(1-((5-(trifluoromethyl)pyrimidin-2-yl)amino)butan-2-yl)picolinamide]

IC50 [1]: > 10000 nM
Structure (SMILES): CC[C@@H](CNC(=O)c1ccccn1)N(C)C(=O)c1cc(Cl)ccc1-n1nccn1 [(S)—N-(2-(5-chloro-N-methyl-2-(2H-1,2,3-triazol-2-yl)benzamido)butyl)picolinamide]

IC50 [1]: > 10000 nM
Structure (SMILES): CC[C@@H](CNc1ccc2nccn2c1)N(C)C(=O)c1cc(Cl)ccc1-n1nccn1 [(S)-5-chloro-N-(1-(imidazo[1,2-a]pyridin-6-ylamino)butan-2-yl)-N-methyl-2-(2H-1,2,3-triazol-2-yl)benzamide]

IC50 [1]: > 10000 nM
Structure (SMILES): CC[C@@H](CNc1ccc(Cl)cn1)N(C)C(=O)c1nc(C)ncc1-n1nccn1 [(S)—N-(1-((5-chloropyridin-2-yl)amino)butan-2-yl)-N,2-dimethyl-5-(2H-1,2,3-triazol-2-yl)pyrimidine-4-carboxamide]

IC50 [2]: 31.6 nM | IC50 [5]: 3.98 nM | IC50 [6]: > 7940 nM | IC50 [7]: 2.51 nM | IC50 [8]: > 3980 nM
Structure (SMILES): CC[C@@H](CNc1cnc(C(F)(F)F)cn1)N(C)C(=O)c1nc(C)ccc1-n1nccn1 [Example 47, (S)—N,6-dimethyl-3-(2H-1,2,3-triazol-2-yl)-N-(1-((5-(trifluoromethyl)pyrazin-2-yl)amino)butan-2-yl)picolinamide]

IC50 [2]: 20 nM | IC50 [5]: 31.6 nM | IC50 [6]: > 10000 nM | IC50 [7]: 3.16 nM | IC50 [8]: > 10000 nM
Structure (SMILES): CC[C@@H](CNc1ncc(C(F)(F)F)cn1)N(C)C(=O)c1nc(C)ccc1-n1nccn1 [Example 46, (S)—N,6-dimethyl-3-(2H-1,2,3-triazol-2-yl)-N-(1-((5-(trifluoromethyl)pyrimidin-2-yl)amino)butan-2-yl)picolinamide]

IC50 [5]: 25.1 nM | IC50 [6]: 200 nM | IC50 [7]: 10 nM | IC50 [8]: 316 nM
Structure (SMILES): CC[C@@H](CNc1ncc(C(F)(F)F)cn1)N(C)C(=O)c1cc(Cl)cc2cccnc12 [Example 80, (S)-6-chloro-N-methyl-N-(1-((5-(trifluoromethyl)pyrimidin-2-yl)amino)butan-2-yl)quinoline-8-carboxamide]

IC50 [5]: 100 nM | IC50 [6]: 1580 nM | IC50 [7]: 79.4 nM | IC50 [8]: 2510 nM
Structure (SMILES): CC[C@@H](CNc1ncc(C(F)(F)F)cn1)N(C)C(=O)c1cccc2cccnc12 [Example 79, (S)—N-methyl-N-(1-((5-(trifluoromethyl)pyrimidin-2-yl)amino)butan-2-yl)quinoline-8-carboxamide]

IC50 [5]: 3.98 nM | IC50 [6]: 1580 nM | IC50 [7]: 2.51 nM | IC50 [8]: 3160 nM
Structure (SMILES): CC[C@@H](CNc1ncc2ccccc2n1)N(C)C(=O)c1nc(C)ccc1-n1nccn1 [Example 61, (S)—N,6-dimethyl-N-(1-(quinazolin-2-ylamino)butan-2-yl)-3-(2H-1,2,3-triazol-2-yl)picolinamide]

Structure (SMILES): CC(C)[C@H](CNc1ccc(Cl)cn1)N(C)C(=O)c1ccccc1-c1ccccc1
Selectivity [3]: Selectivity 1.9x | IC50 [3]: 1000 nM | IC50 [4]: 2000 nM

IC50 [1]: 4900 nM
Structure (SMILES): CC[C@@H](CNc1ccc(Cl)cn1)N(C)C(=O)c1cc(C(F)(F)F)ccc1-n1ccnn1 [(S)—N-(1-((5-chloropyridin-2-yl)amino)butan-2-yl)-N-methyl-2-(1H-1,2,3-triazol-1-yl)-5-(trifluoromethyl)benzamide]

From patent US10611760B2, “Therapeutic compounds as inhibitors of the orexin-1 receptor” (C4X Discovery Limited, priority 2014, dated 2020)
